# Measurements published in publication PMC3225327 (Journal of Biomedical Science, 2011).
# “Also recorded” adds a separate entry of the source.
# Tests used:
# [1] = tested on: inflammatory cells in bronchoalveolar lavage fluid; experiment: Inflammatory cell counts in BALF of sensitized and challenged mice; format: in vivo, BABL/c mice; conditions: 3~30 μmol/kg p.o.
# Experimental: According to the schedule (Figure 1), ten female BABL/c mice in each group were sensitized by an intraperitoneal (i.p.) injection of 20 μg of OVA emulsified in 2.25 mg of an aluminum hydroxide gel, prepared from aluminum sulfate hexadecahydrate, in a total volume of 100 μl on days 0 and 14. On day 21, these mice were injected with (i.p.) 100 μl of a mixture of 1% OVA and Freund's complete adjuvant (1:1). Mice were challenged via the airway using 1% OVA in saline for 30 min on days 28, 29, and 30 by ultrasonic nebulization. After the last of OVA challenges, AHR was assessed on day 32 (48 h after 1% OVA provocation) in each group. […] For comparison, sham-treated mice were challenged with saline instead of 1% OVA (non-challenged). […] AHR was assessed using two methods: (1) in anesthetized ventilated mice, AHR was assessed as previously described by measuring changes in the airway resistance (RL, cmH2O/ml/sec) and lung dynamic compliance (Cdyn, ml/cmH2O) after challenge with aerosolized methacholine (MCh, 0.78~25 mg/ml) using the FlexiVent system (SCIREQ, Montreal, Quebec, Canada). Anesthetized (urethane 600 mg/kg and chloralose 120 mg/kg, i.p.), tracheostomized (stainless-steel cannula, 18 G) mice were mechanically ventilated (at 150 breaths/min, with a tidal volume of 10 ml/kg, positive end-expiratory pressure of 3 cmH2O). (2) in unrestrained animals by barometric plethysmography using a whole-body plethysmograph (WBP) and analyzed using software of Life Science Suite P3 Analysis Modules (Gould, LDS Test and Measurement LLC, Valley View, OH, USA). Mice were placed into the main chamber of the WBP, and the baseline enhanced pause (Penh) value was determined. […] Twenty-four hours after Penh determination, these mice were anesthetized with pentobarbital (50 mg/kg, i.p.), and the lungs were lavaged via a tracheal tube with PBS (1 × 1.0 ml, 37°C). After lavage, blood was collected from the jugular vein and allowed to sit so that it would coagulate. The collected bronchoalveolar lavage fluid (BALF) and coagulated blood were respectively centrifuged at 630 g for 7 min and at 3700 g for 10 min at 4°C. After centrifugation, the BALF and serum supernatants were stored at -20°C until determination of cytokines, including interleukin (IL)-2, IL-4, IL-5, tumor necrosis factor (TNF)-α, and interferon (IFN)-γ by flow cytometric methods using mouse T helper (Th)1/Th2 cytokine CBA kits, and of total immunoglobulin (Ig)E or IgG2a using ELISA kits (Pharmingen, San Diego, CA, USA) according to the respective recommendations of the manufacturers. OVA-specific IgE was measured as described previously. Wells were coated with 100 μl of OVA (20 μg/ml) instead of the capture antibody. Levels are expressed in arbitrary units, where 1 arbitrary unit equals the optical density of the sample divided by the optical density of unchallenged mouse serum or BALF (standard). The BALF pellet was resuspended in ACK lysing buffer (1.658 g NH4Cl, 0.2 g KHCO3 and 1.44 mg EDTA in 200 ml of water) to lyse the residual erythrocytes in each sample. The number of inflammatory cells was counted using a hemocytometer (Hausser Scientific, Horsham, PA, USA). Cytospun slides were stained and differentiated in a blinded fashion by counting at least 100 cells under light microscopy. All undetectable data (< 1 pg/ml) of cytokines were taken as 0 pg/ml.
# [2] = tested on: duration of xylazine/ketamine-induced anesthesia; experiment: Xylazine/ketamine-induced anesthesia; conditions: 10~100 μmol/kg s.c., 1 h before anesthesia
# Experimental: After loss of the righting reflex (i.e., when a mouse remained on its back and no longer spontaneously righted itself to a prone position), the duration of anesthesia was measured until its return as the endpoint.
# PDE1 = experiment: Inhibition of PDE1 activity, two-step procedure; format: biochemical; conditions: homogenate of guinea pig lungs or hearts
# Experimental: Activities of PDE1~5 in the homogenate of guinea pig lungs or hearts were measured by a two-step procedure according to the previous method, using cAMP with [^3H]-cAMP or cGMP with [^3H]-cGMP as substrates. […] The reagents and homogenate were mixed on ice, and the reaction was initiated by transferring the mixture to a water bath at 37°C. Following a 30-min incubation, the reaction was stopped by transferring the reaction vessel to a bath of boiling water for 3 min. After cooling on ice, 20 μl of a 1 mg/ml solution of Crotalus atrox snake venom was added to the reaction mixture, and the mixture was incubated at 37°C for 10 min. Unreacted [^3H]-cAMP or [^3H]-cGMP was removed by the addition of 500 μl of a 1-in-1 Tris-HCl (40 mM) buffer suspension of Dowex resin (1 × 8-200) with incubation on ice for 30 min. Each tube was then centrifuged at 3700 g for 2 min, and 150 μl of the supernatant was removed for liquid scintillation counting. […] The total protein in each fraction used was assayed according to a previous method. PDE activities are reported as nmol/mg/min.
# [3] = tested on: high-affinity rolipram-binding sites (HARBSs) of guinea pig brain cell membranes; experiment: Displacement of 2 nM [3H]-rolipram from high-affinity rolipram-binding sites (PDE4H)
# Experimental: When the above-mentioned guinea pigs were sacrificed, the whole brains were removed and homogenized with a glass/Teflon homogenizer (Glas-Col, Terre Haute, IN, USA) in 10 volumes of cold medium (pH 6.5) containing 20 mM Bis-Tris, 2 mM benzamidine, 2 mM EDTA, 50 mM sodium chloride, 0.1 mM PMSF, and 1 mM dithiothreitol. At 4°C, the homogenate was centrifuged at 170 g for 5 min to remove connective tissues and blood vessels. The suspended homogenate was then re-centrifuged at 40,000 g for 30 min to separate the cytosolic and particulate portions. The particulate portion was re-suspended in a suspension at a concentration of 400 mg/ml (wet weight/volume), after washing three times with homogenizing buffer. The particulate portion mainly consisted of cell membranes. […] Briefly, the reaction buffer consisted of 50 mM Tris-HCl and 5 mM MgCl2 (pH 7.5). […] After 1 h, the reaction was terminated by moving the reaction vessel into crushed ice. Then the reaction mixture was transferred onto Whatman GF/B glass-fiber filters, which were soaked in a 0.3% polyethyleneimine solution in a mini-funnel.
compound,measurement,setting,value
"COc1cc(O)c2c(c1)O[C@H](c1ccc(OC)c(OC)c1)CC2=O [HDME, hesperetin-7,3'-O-dimethylether]",effect on increase in number of eosinophils in BALF,[1],significantly suppressed; also recorded: abolished
same,effect on increase in number of lymphocytes in BALF,[1],significantly suppressed
same,effect on increase in number of macrophages in BALF,[1],significantly suppressed
same,effect on increase in number of neutrophils in BALF,[1],significantly suppressed
same,effect on increase in number of total inflammatory cells in BALF,[1],significantly suppressed
same,effect on duration of xylazine/ketamine-induced anesthesia,[2],did not significantly influnce
same,IC50,PDE1,22.1 ± 6.4 µM
same,EC50,"[3]; 2 nM [3H]-rolipram, 30°C, 1 h, read-out: EC50 (PDE4H) for displacing [3H]-rolipram binding",107 ± 39.5 µM
same,PDE4H/PDE4L ratio (therapeutic ratio),[3]; EC50 of [3H]-rolipram displacement / IC50 of PDE4 inhibition,35.5
